Measured values reported in patent US20100129790A1, “Method for Determining Phospholipidosis” (TAKEDA PHARMACEUTICAL LIMITED, priority 2005, published 2010).
Like-named read-outs stand apart in the source and are kept apart here.

Columns and labels:
blood [1] = assay: GeneChip analysis of blood (Rat Expression Array 230A), 7-day administration; format: in vivo; conditions: rat blood 24 hr after 7 consecutive days of oral administration, pooled, 4 rats per group; dose per compound in table
Protocol: (§1) After collection using PAXgene Blood RNA Tube (PreAnalytiX), the blood was stood for 2 hr or more, and cryopreserved at −80° C. Total RNA was extracted using a PAXgene Blood RNA Kit (PreAnalytiX). A sample for GeneChip analysis was prepared and analyzed according to the protocol provided by Affymetrix Inc. cDNA synthesis reaction was carried out using a SuperScript Choice system (Invitrogen), then biotin-labeled cRNA synthesis reaction was carried out using Enzo BioArray HighYield RNA Transcript Labeling Kit (Affymetrix), after which cRNA was fragmented and a labeled sample was prepared. The labeled sample was hybridized to Rat Expression Array 230A (RAE230A, Affymetrix), the array was stained, washed and scanned by GeneChip system (Affymetrix), and the following three image data were obtained from one sheet of array.
(§2) From the image data, measurement value (Signal), numerical data such as Signal Log Ratio and the like and determination data such as Detection, Change and the like were obtained using MicroarraySuite5.0 (parameter: Default value). Fold Change was calculated from Signal Log Ratio of the image data 2 using the conversion equation of Fold Change=2^Signal Log Ratio.
(§3) (*In GeneChip analysis using RAE230A, 11 sites per one measurement target sequence are measured, and the measurement results at 11 sites are combined to give one numerical value and determination data. RAE230A contains 15924 combinations of 11 site measurement sets, and each measurement set is referred to as a probe set.)
(§4) A probe set wherein two or more of the above-mentioned three image data satisfy the following three conditions was taken as a variation probe set.
(§5) 1. A probe set judged as Increase or Decrease by MicroarraySuite5.0 2. A probe set whose higher measurement value (Signal) was judged as Presence by MicroarraySuite5.0 3.
At 24 hr after completion of the oral administration for 7 consecutive days in Example 3, the blood was collected from the compound administration group and the control (non-administration) group (4 rats per group), which was pooled and subjected to GeneChip analysis in the same manner as in Example 2.

Crj:CD(SD)IGS rats [2] = conditions: rat, in vivo
Protocol: After completion of the administration, in all animals, livers, kidneys, spleens, lungs and mesenteric lymph nodes were sampled, these sampled tissues were examined for histopathological changes by conventional methods of optical microscopy and electron microscopy. In addition, a blood smear sample (Giemsa stain sample) was prepared, and the vacuolated lymphocyte ratio of the peripheral blood was measured with observation under a microscope.

blood [3] = assay: GeneChip analysis of blood (Rat Expression Array 230A), 3-day administration; format: in vivo; conditions: rat blood 24 hr after 3 consecutive days of oral administration, pooled, 3 rats per group; dose per compound in table
Protocol: At 24 hr after completion of the oral administration for 3 consecutive days in Example 1, the blood was collected from the compound administration group and the control (non-administration) group (3 rats per group), which was pooled and subjected to GeneChip analysis.
as §1
1. data of staining by a method omitting fluorescence amplification reaction by antibody 2. data of staining by the method described in a manual for once performing fluorescence amplification reaction by antibody 3. data of staining by a method for twice performing fluorescence amplification reaction by antibody
as §2, §3, §4, §5

Crj:CD(SD)IGS rats [4] = conditions: rat, in vivo; remark: listed apart in the source

| Number of expression variation probe sets, Decreased expression (blood [1]) | Number of expression variation probe sets, Increased expression (blood [1]) | Histopathological findings (PLsis) Kidney (Crj:CD(SD)IGS rats [2]) | Histopathological findings (PLsis) Liver (Crj:CD(SD)IGS rats [2]) | Histopathological findings (PLsis) Lung (Crj:CD(SD)IGS rats [2]) | Histopathological findings (PLsis) Lymph node (Crj:CD(SD)IGS rats [2]) | Histopathological findings (PLsis) Spleen (Crj:CD(SD)IGS rats [2]) | Number of expression variation probe sets, Decreased expression (blood [3]) | Number of expression variation probe sets, Increased expression (blood [3]) | Histopathological findings (PLsis) Liver (Crj:CD(SD)IGS rats [4]) | Histopathological findings (PLsis) Lung (Crj:CD(SD)IGS rats [4]) | Histopathological findings (PLsis) Lymph node (Crj:CD(SD)IGS rats [4]) | Histopathological findings (PLsis) Others (Crj:CD(SD)IGS rats [4]) | Histopathological findings (PLsis) Spleen (Crj:CD(SD)IGS rats [4]) | Compound |
| --- | --- | --- | --- | --- | --- | --- | --- | --- | --- | --- | --- | --- | --- | --- |
| 320 | 123 | − | ++ | + | − | − |  |  |  |  |  |  |  | CN(C)CCCN1c2ccccc2CCc2ccccc21 [Imipramine, imipramine] |
| 368 | 546 | − | − | + | ++ | − | 94 | 258 | + | + | + | − | − | CC/C(=C(\c1ccccc1)c1ccc(OCCN(C)C)cc1)c1ccccc1 [Tamoxifen, tamoxifen] |
| 457 | 515 | − | − | ++ | ++ | − | 282 | 613 | − | + | + | − | + | CCCCc1oc2ccccc2c1C(=O)c1cc(I)c(OCCN(CC)CC)c(I)c1 [Amiodarone, amiodarone] |
|  |  |  |  |  |  |  | 391 | 372 | + | + | + | brain | − | CNCCC(Oc1ccc(C(F)(F)F)cc1)c1ccccc1 (stereo not drawn) [Fluoxetine, fluoxetine] |

Further lines, the compound ahead of its results:

| Compound | Number of expression variation probe sets, Decreased expression (blood [1]) | Number of expression variation probe sets, Increased expression (blood [1]) | Histopathological findings (PLsis) Kidney (Crj:CD(SD)IGS rats [2]) | Histopathological findings (PLsis) Liver (Crj:CD(SD)IGS rats [2]) | Histopathological findings (PLsis) Lung (Crj:CD(SD)IGS rats [2]) | Histopathological findings (PLsis) Lymph node (Crj:CD(SD)IGS rats [2]) | Histopathological findings (PLsis) Spleen (Crj:CD(SD)IGS rats [2]) | Number of expression variation probe sets, Decreased expression (blood [3]) | Number of expression variation probe sets, Increased expression (blood [3]) | Histopathological findings (PLsis) Liver (Crj:CD(SD)IGS rats [4]) | Histopathological findings (PLsis) Lung (Crj:CD(SD)IGS rats [4]) | Histopathological findings (PLsis) Lymph node (Crj:CD(SD)IGS rats [4]) | Histopathological findings (PLsis) Others (Crj:CD(SD)IGS rats [4]) | Histopathological findings (PLsis) Spleen (Crj:CD(SD)IGS rats [4]) |
| --- | --- | --- | --- | --- | --- | --- | --- | --- | --- | --- | --- | --- | --- | --- |
| CCN(CC)CCCC(C)Nc1c2ccc(Cl)cc2nc2ccc(OC)cc12 (stereo not drawn) [Quinacrine, quinacrine] | 103 | 258 | + | ++ | + | − | + | 392 | 240 | + | + | + | − | − |
| C1CCC(C(CC2CCCCN2)C2CCCCC2)CC1 (stereo not drawn) [Perhexiline, perhexiline] | 83 | 49 | − | − | + | + | − | 179 | 310 | − | + | + | − | + |
| CCN(CC)CCCC(C)Nc1ccnc2cc(Cl)ccc12 (stereo not drawn) [Chloroquine, chloroquine] | 179 | 310 | − | + | − | − | + | 318 | 382 | − | − | + | − | + |
